Results taken from patent US20220242856A1, “CANNABINOID DERIVATIVES” (CANOPY GROWTH CORPORATION, priority 2019, published 2022).

Columns and labels:
[1] = target: T1, human CB1 receptor (Homo sapiens, UniProt P21554); test: CB1 radioligand competitive binding assay ([3H]CP 55,940 displacement); settings: for Selectivity CB1: fold difference in selectivity between CB1 and CB2 binding, printed in the column of the receptor with higher affinity, 1.00 = about the same affinity
T1 construct: host or cells: CHO-K1

[2] = target: T1, human CB1 receptor; test: PathHunter β-arrestin functional assay, CB1 receptor, agonist mode; type: cell-based; settings: PathHunter CHO-K1 CNR1 β-Arrestin cells; normalized to CP55,940
Source text: (§1) In the PathHunter® β-Arrestin system from DiscoveRx (Eurofins, Fremont, Calif.), a small peptide, the ProLink™ (PK), is fused to the intracellular sequence of a GPCR target, and a complementing peptide, the enzyme acceptor (EA) fragment, is fused to β-arrestin. After binding to its specific ligand, the GPCR target recruits β-arrestin, forcing the complementation of the two β-galactosidase enzyme fragments (EA and PK) to produce a functional β-galactosidase enzyme. The enzyme activity, and thus the amount of ligand bound to the GPCR, is detected with a single addition of a reagent cocktail to lyse the cells and produce a chemiluminescent signal before being analyzed using a traditional plate reader.
(§2) PathHunter® CHO-K1 CNR1 β-Arrestin cells (DiscoverRx, cat. Number 93-0959C2) stably expressing CB1 receptor (CB1R) were grown in Ham's F12 medium containing 10% fetal bovine serum (FBS), 1% penicillin/streptomycin, 300 μg/mL Hygromycin B and 800 μg/mL geneticin (G418) and maintained in 37° C. incubators at 5% CO2. […]
(§3) The incubation was terminated by adding the detection reagent (19 parts of 1% CHAPS, 5 parts Emerald-II and 1 part Galacton-Star), equivalent to 50% of the assay volume to each wells. Plates were incubated for 1 hour in the dark at room temperature, followed by chemiluminescence detection using a microplate reader.
(§4) Data were analysed by generating nonlinear regression curves. […]

[3] = target: T2, human CB2 receptor (Homo sapiens, UniProt P34972); test: CB2 radioligand competitive binding assay ([3H]CP 55,940 displacement); settings: for Selectivity CB2: fold difference in selectivity between CB1 and CB2 binding, printed in the column of the receptor with higher affinity, 1.00 = about the same affinity
T2 construct: host or cells: CHO-K1
Description: Compounds of the present disclosure were tested for CB1 receptor binding affinity and for CB2 receptor binding affinity. As used herein, “binding affinity” is represented by the IC50 value, which was experimentally determined as described herein. The lower the IC50 value the higher the binding affinity. A compound of the present disclosure may be said to have “binding selectivity” if it has a higher binding affinity for one receptor compared to the other.
The membranes were prepared from CHO-K1 (Chinese hamster ovary) cells stably transfected with the human CB2 receptor (Cat.# ES-111-C; Perkin Elmer, Boston, Mass.). The cells were grown adherently and maintained in Ham's F12 medium containing 10% fetal bovine serum (FBS), penicillin, streptomycin and geneticin (G418) at 37° C. in a humid atmosphere of 5% CO2 following the manufacturer's instructions.
For membrane preparation the cells were washed with PBS and scraped off the plates in cold homogenization buffer (25 mM HEPES (pH 7.4), 2 mM EDTA) containing protease inhibitor cocktail (Sigma Cat.# P8340). The cell suspension was homogenized with a Pro-PK-01200D Polytron Homogenizer (Pro Scientific) and then centrifuged for 30 min at 120,000×g. The supernatant was discarded and the pellet was re-suspended in the homogenization buffer and stored at −80° C. until the time of use.
In this experiment, 3H radiolabeled CP 55,940, i.e. [3H]CP 55,940 (Perkin Elmer, Boston, Mass.), was used as a radioligand for the CB2 receptor to determine the binding affinity of compounds for the CB2 receptor (Scheme 7; above).
The competition binding experiments (single dose and dose-response) were performed by incubating 0.6 nM of [3H]CP55,940 (specific activity 101 Ci/mmol, Perkin Elmer) and different concentrations of compounds disclosed herein with membranes prepared as above from CHO-K1 cells expressing human CB2 receptor (1 μg of protein/well), 50 mM Tris-HCl (pH 7.4), 5 mM MgCl2, 1 mM CaCl2, and 2 mg/mL BSA.
For the single dose experiments, the compound stocks (usually 10 mM in DMSO) were diluted to working stocks in the binding buffer to give the final compound concentrations of 10 μM and 1 μM. For the dose-response experiments the test compounds were sequentially diluted to provide the desired concentration range for the IC50 determination. In each case the compounds were pre-incubated with the membrane for 20 min, before adding the radioligand.
After incubation with the radioligand for 60 min at 37° C., the incubation was terminated by rapid filtration of assay mixture through MultiScreen®HTS^+ 96-well filter plates (Millipore, Cat.# MSFCNXB), pre-soaked for 60 min with 50 mM Tris-HCl (pH 7.4) containing 0.33% polyethylenimine (PEI). The nonspecific binding (NSB) was determined in the presence of 10 μM unlabelled CP55,940. After drying the filter plate at 50° C. for at least 60 min, the filter-bound radioactivity was determined by scintillation spectrometry using the 1450 MicroBeta Plate Counter (Perkin Elmer, Boston, Mass.). From the dose-response experiments, the IC50 values were determined (see Table 1, CB2 IC50).

[4] = target: T1, human CB1 receptor; test: PathHunter β-arrestin functional assay, CB1 receptor, antagonist mode; type: cell-based
Source text: as §1, §2, §3, §4

T2 sequence (P34972 whole entry): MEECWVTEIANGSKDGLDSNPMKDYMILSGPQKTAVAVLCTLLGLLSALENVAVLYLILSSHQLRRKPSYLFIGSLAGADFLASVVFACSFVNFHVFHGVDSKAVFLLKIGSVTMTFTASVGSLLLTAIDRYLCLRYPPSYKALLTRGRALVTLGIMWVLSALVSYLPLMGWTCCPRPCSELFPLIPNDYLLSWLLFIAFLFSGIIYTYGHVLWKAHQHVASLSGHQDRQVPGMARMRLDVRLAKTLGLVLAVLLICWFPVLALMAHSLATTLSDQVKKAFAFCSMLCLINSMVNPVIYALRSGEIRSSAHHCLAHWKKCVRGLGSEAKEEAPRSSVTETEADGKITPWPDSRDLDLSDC
T1 sequence (P21554 whole entry): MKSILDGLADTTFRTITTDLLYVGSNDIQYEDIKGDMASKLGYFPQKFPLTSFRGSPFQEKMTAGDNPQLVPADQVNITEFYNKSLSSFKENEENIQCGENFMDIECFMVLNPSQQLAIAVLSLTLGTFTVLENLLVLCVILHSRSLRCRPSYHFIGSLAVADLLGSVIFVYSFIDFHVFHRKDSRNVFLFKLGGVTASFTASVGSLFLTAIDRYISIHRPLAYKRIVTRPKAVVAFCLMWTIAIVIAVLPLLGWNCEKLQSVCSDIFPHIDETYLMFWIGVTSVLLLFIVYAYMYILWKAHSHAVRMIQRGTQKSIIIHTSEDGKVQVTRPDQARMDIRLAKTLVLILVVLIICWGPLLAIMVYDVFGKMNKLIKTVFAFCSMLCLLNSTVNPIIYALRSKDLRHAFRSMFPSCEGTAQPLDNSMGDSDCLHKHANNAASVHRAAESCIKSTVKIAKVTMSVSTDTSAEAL

| Compound | IC50 [1] [nM] | activity towards the human CB1 receptor, agonist mode [2] | IC50 [3] [nM] | Selectivity CB2 [3] [fold] | Selectivity CB1 [1] [fold] | IC50 [4] [nM] |
| --- | --- | --- | --- | --- | --- | --- |
| CCCCCc1cc2c(c(O)c1-c1cccnc1)[C@@H]1C=C(C)CC[C@H]1C(C)(C)O2 [Compound 12b, 6,6,9-trimethyl-3-pentyl-2-(pyridin-3-yl)-6a,7,8,10a-tetrahydro-6H-benzo[c]chromen-1-ol] | 500 to 990 | minimal to no activity | 500 to 990 | 1.57 | – | – |
| CCCCCc1cc2c(c(O)c1-c1cncnc1)[C@@H]1C=C(C)CC[C@H]1C(C)(C)O2 [Compound 13b, 6,6,9-trimethyl-3-pentyl-2-(pyrimidin-5-yl)-6a,7,8,10a-tetrahydro-6H-benzo [c] chromen-1-ol] | > 1000 | – | 500 to 990 | 5.00 | – | – |
| CCCCCc1cc2c(c(O)c1-c1ccncc1)[C@@H]1C=C(C)CC[C@H]1C(C)(C)O2 [Compound 14b, 6,6,9-trimethyl-3-pentyl-2-(pyridin-4-yl)-6a,7,8,10a-tetrahydro-6H-benzo[c]chromen-1-ol] | 100 to 490 | – | 100 to 490 | 1.77 | – | – |
| CCCCCc1cc2c(c(O)c1-c1ccco1)[C@@H]1C=C(C)CC[C@H]1C(C)(C)O2 [Compound 15b, 2-(furan-2-yl)-6,6,9-trimethyl-3-pentyl-6a,7,8,10a-tetrahydro-6H-benzo[c]chromen-1-ol] | < 100 | – | < 100 | 1.00 | 1.00 | – |
| CCCCCc1cc2c(c(O)c1-c1ccsc1)[C@@H]1C=C(C)CC[C@H]1C(C)(C)O2 [Compound 17b, 6,6,9-trimethyl-3-pentyl-2-(thiophen-3-yl)-6a,7,8,10a-tetrahydro-6H-benzo[c]chromen-1-ol] | 100 to 490 | – | < 100 | 3.43 | – | – |
| CCCCCc1cc2c(c(O)c1-c1cncs1)[C@@H]1C=C(C)CC[C@H]1C(C)(C)O2 [Compound 18b] | > 1000 | – | > 1000 | 1.00 | 1.00 | – |
| CCCCCc1cc2c(c(O)c1-c1ccnn1C)[C@@H]1C=C(C)CC[C@H]1C(C)(C)O2 [Compound 33b, 6,6,9-trimethyl-2-(1-methyl-1H-pyrazol-5-yl)-3-pentyl-6a,7,8,10a-tetrahydro-6H-benzo[c]chromen-1-ol] | 100 to 490 | – | 100 to 490 | 1.61 | – | – |
| CCCCCc1cc2c(c(O)c1-c1cc3ccccc3o1)[C@@H]1C=C(C)CC[C@H]1C(C)(C)O2 [Compound 34b, 2-(benzofuran-2-yl)-6,6,9-trimethyl-3-pentyl-6a,7,8,10a-tetrahydro-6H-benzo[c]chromen-1-ol] | 500 to 990 | – | 100 to 490 | 4.41 | – | – |
| CCCCCc1cc2c(c(O)c1-c1cn[nH]c1)[C@@H]1C=C(C)CC[C@H]1C(C)(C)O2 [Compound 35b, 6,6,9-trimethyl-3-pentyl-2-(1H-pyrazol-4-yl)-6a,7,8,10a-tetrahydro-6H-benzo[c]chromen-1-ol] | > 1000 | – | 500 to 990 | 2.64 | – | – |
| CCCCCc1cc2c(c(O)c1-c1cc3ccccc3s1)[C@@H]1C=C(C)CC[C@H]1C(C)(C)O2 [Compound 36b, 2-(benzothiophen-2-yl)-6,6,9-trimethyl-3-pentyl-6a,7,8,10a-tetrahydrobenzo[c]chromen-1-ol] | > 1000 | minimal to no activity | 100 to 490 | 5.67 | – | ~3000 |
